Assay results: PubChem BioAssay AID1918955 (Molecular Pharmacology Branch, DTP, NCI, 2023)

Test system: NCI/ADR-RES complex spheroid viability
Assay: Anticancer human tumor NCI/ADR-RES cell line growth inhibition;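 further: spheroids exposed to compounds for 7 days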;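 on viability, T/C: 100% = DMSO vehicle treated spheroids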
Details: for IC50: curve of first compound; for viability, T/C: stronger effect = lower value
Method in brief: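 Drug combinations with the LSD1 inhibitor iadademstat tested on tumor cells co-cultured as spheroids with endothelial cells and mesenchymal stem cells. Concentrations descended in half-log increments from clinical Cmax or 10 microM.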

**Q.** Which IC50 (second compound 0.1 µM) does the source give for `CC1COCCN1c1cc(C2(S(C)(=N)=O)CC2)nc(-c2ccnc3[nH]ccc23)n1` (stereo not given) + NC1CCC(NC2CC2c2ccccc2)CC1 here?
**A.** > 10 µM

**Q.** And the IC50 (second compound 0.316 µM)?
**A.** > 10 µM

**Q.** What about the IC50 (second compound 1 µM) of the same molecule?
**A.** 8.56 µM

**Q.** And the IC50 (second compound 3.16 µM)?
**A.** 7.93 µM

**Q.** What about the IC50 (second compound 10 µM) of the same molecule?
**A.** 5.24 µM

**Q.** What about the viability, T/C (second compound 0.1 µM, first compound 0.0316 µM) of the same molecule?
**A.** 98.9%

**Q.** What about the viability, T/C (second compound 0.1 µM, first compound 0.1 µM) of the same molecule?
**A.** 104%

**Q.** What about the viability, T/C (second compound 0.1 µM, first compound 0.316 µM) of the same molecule?
**A.** 105%

**Q.** And the viability, T/C (second compound 0.1 µM, first compound 1 µM)?
**A.** 95.6%

**Q.** What about the viability, T/C (second compound 0.1 µM, first compound 3.16 µM) of the same molecule?
**A.** 82.8%

**Q.** What about the viability, T/C (second compound 0.1 µM, first compound 10 µM) of the same molecule?
**A.** 50.5%

**Q.** And the viability, T/C (second compound 0.316 µM, first compound 0.0316 µM)?
**A.** 101%

**Q.** What about the viability, T/C (second compound 0.316 µM, first compound 0.1 µM) of the same molecule?
**A.** 98.8%

**Q.** And the viability, T/C (second compound 0.316 µM, first compound 0.316 µM)?
**A.** 102%

**Q.** What about the viability, T/C (second compound 0.316 µM, first compound 1 µM) of the same molecule?
**A.** 94.5%

**Q.** What about the viability, T/C (second compound 0.316 µM, first compound 3.16 µM) of the same molecule?
**A.** 71.8%

**Q.** What about the viability, T/C (second compound 0.316 µM, first compound 10 µM) of the same molecule?
**A.** 55.5%

**Q.** What about the viability, T/C (second compound 1 µM, first compound 0.0316 µM) of the same molecule?
**A.** 104%

**Q.** And the viability, T/C (second compound 1 µM, first compound 0.1 µM)?
**A.** 102%

**Q.** What about the viability, T/C (second compound 1 µM, first compound 0.316 µM) of the same molecule?
**A.** 97.6%

**Q.** What about the viability, T/C (second compound 1 µM, first compound 1 µM) of the same molecule?
**A.** 97.5%

**Q.** What about the viability, T/C (second compound 1 µM, first compound 3.16 µM) of the same molecule?
**A.** 84.5%

**Q.** And the viability, T/C (second compound 1 µM, first compound 10 µM)?
**A.** 44.2%

**Q.** What about the viability, T/C (second compound 3.16 µM, first compound 0.0316 µM) of the same molecule?
**A.** 96.4%

**Q.** What about the viability, T/C (second compound 3.16 µM, first compound 0.1 µM) of the same molecule?
**A.** 96.8%

**Q.** What about the viability, T/C (second compound 3.16 µM, first compound 0.316 µM) of the same molecule?
**A.** 94.6%

**Q.** What about the viability, T/C (second compound 3.16 µM, first compound 1 µM) of the same molecule?
**A.** 84.4%

**Q.** And the viability, T/C (second compound 3.16 µM, first compound 3.16 µM)?
**A.** 68.6%

**Q.** What about the viability, T/C (second compound 3.16 µM, first compound 10 µM) of the same molecule?
**A.** 45%

**Q.** And the viability, T/C (second compound 10 µM, first compound 0.0316 µM)?
**A.** 98.4%

**Q.** And the viability, T/C (second compound 10 µM, first compound 0.1 µM)?
**A.** 92.7%

**Q.** What about the viability, T/C (second compound 10 µM, first compound 0.316 µM) of the same molecule?
**A.** 89.7%

**Q.** What about the viability, T/C (second compound 10 µM, first compound 1 µM) of the same molecule?
**A.** 83.8%

**Q.** And the viability, T/C (second compound 10 µM, first compound 3.16 µM)?
**A.** 61.3%

**Q.** What about the viability, T/C (second compound 10 µM, first compound 10 µM) of the same molecule?
**A.** 34.6%

**Q.** With `CCN(c1cc(-c2ccc(CN3CCOCC3)cc2)cc(C(=O)NCc2c(C)cc(C)[nH]c2=O)c1C)C1CCOCC1` + NC1CCC(NC2CC2c2ccccc2)CC1 as the molecule, how does the IC50 (second compound 0.1 µM) read?
**A.** > 3 µM

**Q.** What about the IC50 (second compound 0.316 µM) of the same molecule?
**A.** > 3 µM

**Q.** And the IC50 (second compound 1 µM)?
**A.** > 3 µM

**Q.** What about the IC50 (second compound 3.16 µM) of the same molecule?
**A.** > 3 µM

**Q.** What about the IC50 (second compound 10 µM) of the same molecule?
**A.** > 3 µM

**Q.** What about the viability, T/C (second compound 0.1 µM, first compound 0.00949 µM) of the same molecule?
**A.** 92.4%

**Q.** And the viability, T/C (second compound 0.1 µM, first compound 0.03 µM)?
**A.** 92.5%

**Q.** And the viability, T/C (second compound 0.1 µM, first compound 0.0949 µM)?
**A.** 98.1%

**Q.** What about the viability, T/C (second compound 0.1 µM, first compound 0.3 µM) of the same molecule?
**A.** 98.1%

**Q.** And the viability, T/C (second compound 0.1 µM, first compound 0.949 µM)?
**A.** 92.8%

**Q.** And the viability, T/C (second compound 0.1 µM, first compound 3 µM)?
**A.** 89.3%

**Q.** And the viability, T/C (second compound 0.316 µM, first compound 0.00949 µM)?
**A.** 94.6%

**Q.** What about the viability, T/C (second compound 0.316 µM, first compound 0.03 µM) of the same molecule?
**A.** 97.9%

**Q.** What about the viability, T/C (second compound 0.316 µM, first compound 0.0949 µM) of the same molecule?
**A.** 96.9%

**Q.** And the viability, T/C (second compound 0.316 µM, first compound 0.3 µM)?
**A.** 95%

**Q.** And the viability, T/C (second compound 0.316 µM, first compound 0.949 µM)?
**A.** 91.4%

**Q.** And the viability, T/C (second compound 0.316 µM, first compound 3 µM)?
**A.** 81.5%

**Q.** And the viability, T/C (second compound 1 µM, first compound 0.00949 µM)?
**A.** 104%

**Q.** And the viability, T/C (second compound 1 µM, first compound 0.03 µM)?
**A.** 99.5%

**Q.** And the viability, T/C (second compound 1 µM, first compound 0.0949 µM)?
**A.** 93.8%

**Q.** And the viability, T/C (second compound 1 µM, first compound 0.3 µM)?
**A.** 99%

**Q.** What about the viability, T/C (second compound 1 µM, first compound 0.949 µM) of the same molecule?
**A.** 95.7%

**Q.** What about the viability, T/C (second compound 1 µM, first compound 3 µM) of the same molecule?
**A.** 89.2%

**Q.** What about the viability, T/C (second compound 3.16 µM, first compound 0.00949 µM) of the same molecule?
**A.** 89.4%

**Q.** And the viability, T/C (second compound 3.16 µM, first compound 0.03 µM)?
**A.** 98%

**Q.** And the viability, T/C (second compound 3.16 µM, first compound 0.0949 µM)?
**A.** 94%

**Q.** And the viability, T/C (second compound 3.16 µM, first compound 0.3 µM)?
**A.** 96%

**Q.** And the viability, T/C (second compound 3.16 µM, first compound 0.949 µM)?
**A.** 87.6%

**Q.** And the viability, T/C (second compound 3.16 µM, first compound 3 µM)?
**A.** 89%

**Q.** What about the viability, T/C (second compound 10 µM, first compound 0.00949 µM) of the same molecule?
**A.** 91.9%

**Q.** And the viability, T/C (second compound 10 µM, first compound 0.03 µM)?
**A.** 89.8%

**Q.** What about the viability, T/C (second compound 10 µM, first compound 0.0949 µM) of the same molecule?
**A.** 88.2%

**Q.** What about the viability, T/C (second compound 10 µM, first compound 0.3 µM) of the same molecule?
**A.** 86.1%

**Q.** What about the viability, T/C (second compound 10 µM, first compound 0.949 µM) of the same molecule?
**A.** 90.1%

**Q.** What about the viability, T/C (second compound 10 µM, first compound 3 µM) of the same molecule?
**A.** 80.9%
